What all share (assay type): biochemical
One assay deals with recombinant rat PIM-3 (Rattus norvegicus, UniProt O70444). Nature of the assay: PIM-3 Assay (as Example A). The conditions noted are these: averaged IC50; 30 μM ATP, 3.75 μM PIM2tide, 0.5 nM PIM-3. How it is done: (§1) The assay for the determination of PIM-1 activity is based on the incorporation of [^33P]PO4 from [γ-^33P]ATP into PIM2tide substrate and capture of the radiolabeled peptide onto a Whatman P81 (phosphocellulose) filter plate. The amount of radiolabeled product is then measured by liquid scintillation counting. The final buffer conditions were as follows: 20 mM K^+MOPS, pH 7.4, 10 mM MgCl2, 0.005% Tween-20, 1 mM DTT. Assay mixtures contained 35 μM [γ-^33P]ATP (20 μCi/mL), 7.5 μM PIM2tide and 0.25 nM PIM-1 in a total volume of 50 μL. Incubations were carried out for 60 min at 22° C. and quenched with 75 μL of 200 mM H3PO4, filtered through a Whatman P81 plate and washed (1×200 μL and 5×100 μL) with 200 mM H3PO4. Fifty μL of liquid scintillation cocktail were then added per well, and the plate was counted for 30 s/well using a TopCount NXT.
(§2) Compounds were prepared at 50× the final concentration in DMSO by conducting 3-fold serial dilutions from a 500-μM intermediate dilution to give a 10-point dosing curve having a high dose of 10 μM. One-μL aliquots of these were then transferred to the assay mixtures above to give a final concentration of DMSO of 2%. A standard or reference compound was typically included on each assay plate to validate that plate. For each plate, percent of control (POC) values were calculated for each well. IC50 values were estimated from the POC values using a standard 4-parameter logistic model. The IC50 is defined as the concentration of inhibitor at which the POC equals 50 for the fitted curve.
Assay was performed as described in Example A, using 30 μM [γ-^33P]ATP (20 μCi/mL), 3.75 μM PIM2tide and 0.5 nM recombinant rat PIM-3 in place of PIM-1.

The target of a further assay is PIM-1 (Homo sapiens, UniProt P11309). Description: Enzyme PIM-1 Assay ([33P]ATP incorporation into PIM2tide, filter plate). Conditions: averaged IC50; 35 μM ATP, 7.5 μM PIM2tide, 0.25 nM PIM-1, 60 min at 22° C. As for the experimental part: as §1, §2
Chain of PIM-1 (P11309 whole entry, species assumed): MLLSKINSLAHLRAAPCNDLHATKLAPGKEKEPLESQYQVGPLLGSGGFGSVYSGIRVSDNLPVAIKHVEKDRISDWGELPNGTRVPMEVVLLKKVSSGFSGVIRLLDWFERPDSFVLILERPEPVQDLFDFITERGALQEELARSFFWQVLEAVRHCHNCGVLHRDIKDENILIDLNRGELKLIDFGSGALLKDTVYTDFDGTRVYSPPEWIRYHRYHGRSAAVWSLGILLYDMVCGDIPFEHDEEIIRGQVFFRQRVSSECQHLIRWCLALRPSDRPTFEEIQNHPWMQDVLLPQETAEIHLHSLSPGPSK
The target of assay [1] is T1, GST-tagged recombinant full-length human Pim-2 (Homo sapiens, UniProt Q9P1W9).
T1 construct: GST-tagged recombinant full-length human Pim-2; GST
T1 sequence (Q9P1W9 whole entry): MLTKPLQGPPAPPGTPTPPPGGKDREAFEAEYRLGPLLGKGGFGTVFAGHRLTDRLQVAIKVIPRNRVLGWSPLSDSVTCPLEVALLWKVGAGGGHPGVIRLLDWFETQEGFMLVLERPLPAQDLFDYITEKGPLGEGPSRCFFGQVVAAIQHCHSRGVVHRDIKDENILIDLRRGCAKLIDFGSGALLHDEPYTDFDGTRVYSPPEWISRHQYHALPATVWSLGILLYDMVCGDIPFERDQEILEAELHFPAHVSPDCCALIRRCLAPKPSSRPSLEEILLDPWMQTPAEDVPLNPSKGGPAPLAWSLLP
Nature of the assay: PIM-2 Assay (as Example A). Conditions: averaged IC50; 4 μM ATP, 1.0 μM PIM2tide, 1.5 nM Pim-2. How it is done:
as §1, §2
Assay was performed as described in Example A, using 4 μM [γ-^33P]ATP (20 μCi/mL), 1.0 μM PIM2tide and 1.5 nM GST-tagged recombinant full-length human Pim-2 in place of PIM-1.

The source of these data is patent US8889704B2 (Array BioPharma Inc., priority 2011, dated 2014).

Counter-ions that a name gives are not always drawn.

By IC50 is commonly meant the concentration needed to halve the response being measured. As for `CC(C)Oc1cccc2ccc(-c3nnc4ccc(C(N5C[C@@H](O)[C@H](O)C5)C(F)(F)F)cn34)nc12` (single isomer, unassigned) [Example 82], the 50% inhibitory concentration (IC50) is 30 nM on recombinant rat PIM-3, 1.12 nM on PIM-1 and more than 100 nM in assay [1].
The matching figures for `CC(C)Oc1cccc2ccc(-c3nnc4ccc([C@@H](N5CC[C@@](N)(CF)C5)C(F)(F)F)cn34)nc12` (single isomer, unassigned) [Example 154, dihydrochloride]: 4.2 nM, 0.58 nM and more than 100 nM.
The matching figures for `CC(C)Oc1cccc2ccc(-c3nnc4ccc([C@@H](N5CC[C@](N)(CF)C5)C(F)(F)F)cn34)nc12` (single isomer, unassigned) [Example 155, dihydrochloride]: 1.3 nM, 0.34 nM and 45 nM.
For `COc1cccc2ccc(-c3nnc4ccc([C@@H](N5CC[C@@](N)(CF)C5)C(F)(F)F)cn34)nc12` (single isomer, unassigned) [Example 169], the half-inhibitory concentration (IC50) is 36 nM on recombinant rat PIM-3, 6.65 nM on PIM-1 and more than 100 nM in assay [1].
The like results for `COc1cccc2ccc(-c3nnc4ccc([C@@H](N5CC[C@](N)(CF)C5)C(F)(F)F)cn34)nc12` (single isomer, unassigned) [Example 170] were, in that order, 6.2 nM, 0.95 nM and more than 100 nM.
The matching figures for `COc1cccc2ccc(-c3nnc4ccc([C@@H](N5CCC(C)(O)C5)C(F)(F)F)cn34)nc12` (single isomer, unassigned; diastereomer 1) [Example 193, hydrochloride]: 67 nM, 13 nM and more than 1000 nM.
Consider `CC1(O)CCN([C@H](c2ccc3nnc(-c4ccc5cccc(C(C)(C)C)c5n4)n3c2)C(F)(F)F)C1` (single isomer, unassigned; diastereomer 1) [Example 195, hydrochloride], for which the figures for the half-maximal inhibitory concentration (IC50) (on recombinant rat PIM-3; on PIM-1; in assay [1]) were 53 nM, 21.3 nM and more than 1000 nM, respectively.
Regarding `CC(C)Oc1cccc2ccc(-c3nnc4ccc([C@H](N5CCC(C)(O)C5)C(F)(F)F)cn34)nc12` (single isomer, unassigned; diastereomer 1) [Example 199], the IC50 on recombinant rat PIM-3 is 30 nM; against PIM-1 it was 18.7 nM; in assay [1] it was more than 1000 nM.
The matching figures for `Cn1cc(-c2ccc3ccc(-c4nnc5ccc([C@H](N6CCC(C)(O)C6)C(F)(F)F)cn45)nc3c2)cn1` (single isomer, unassigned; diastereomer 1) [Example 200]: 3.4 nM, 1.86 nM and 137 nM.
The matching figures for `CC(C)Oc1cc(F)cc2ccc(-c3nnc4ccc([C@H](N5CCC(C)(O)C5)C(F)(F)F)cn34)nc12` (single isomer, unassigned; diastereomer 1) [Example 202, hydrochloride]: 7.9 nM, 6.62 nM and more than 1000 nM.
The matching figures for `CCC1(N)CCN([C@H](c2ccc3nnc(-c4ccc5cccc(OC)c5n4)n3c2)C(F)(F)F)C1` (single isomer, unassigned; diastereomer 1) [Example 242, dihydrochloride]: 21 nM, 4.2 nM and more than 1000 nM.
For `CCOc1cc2nc(-c3nnc4ccc([C@@H](N5CCC(N)(CC)C5)C(F)(F)F)cn34)ccc2cc1F` (single isomer, unassigned; diastereomer 1) [Example 243, dihydrochloride], the concentration for half-maximal inhibition (IC50) was found to be 2.1 nM at recombinant rat PIM-3, 0.54 nM on PIM-1 and 728 nM in assay [1].
The like results for `CCC1(N)CCN([C@@H](c2ccc3nnc(-c4ccc5cccc(OC)c5n4)n3c2)C(F)(F)F)C1` (single isomer, unassigned; diastereomer 1) [Example 250, dihydrochloride] were, in that order, 11 nM, 2.77 nM and 861 nM.
The like results for `CCOc1cc2nc(-c3nnc4ccc([C@H](N5CCC(N)(CC)C5)C(F)(F)F)cn34)ccc2cc1F` (single isomer, unassigned; diastereomer 1) [Example 251, dihydrochloride] were, in that order, 0.8 nM, 0.75 nM and 102 nM.
In the case of `N[C@H]1CCN([C@H](c2ccc3nnc(-c4ccc5ccc(O[C@H]6CCC[C@@H]6O)cc5n4)n3c2)C(F)(F)F)C1` (single isomer, unassigned; diastereomer 1) [Example 319, di-hydrochloride], the IC50 is 0.3 nM at recombinant rat PIM-3, 0.11 nM on PIM-1 and 112 nM in assay [1].
The matching figures for `COc1cccc2ccc(-c3nnc4ccc([C@@H](N5CCC(C)(O)C5)C(F)(F)F)cn34)nc12` (single isomer, unassigned; diastereomer 2) [Example 194, hydrochloride]: more than 100 nM, more than 100 nM and more than 1000 nM.
The matching figures for `CC1(O)CCN([C@H](c2ccc3nnc(-c4ccc5cccc(C(C)(C)C)c5n4)n3c2)C(F)(F)F)C1` (single isomer, unassigned; diastereomer 2) [Example 196, hydrochloride]: more than 100 nM, 42.3 nM and more than 1000 nM.
With `Cn1cc(-c2ccc3ccc(-c4nnc5ccc([C@H](N6CCC(C)(O)C6)C(F)(F)F)cn45)nc3c2)cn1` (single isomer, unassigned; diastereomer 2) [Example 201, hydrochloride], the IC50 is 42 nM on recombinant rat PIM-3, 43.5 nM against PIM-1 and more than 1000 nM in assay [1].
The like results for `CC(C)Oc1cc(F)cc2ccc(-c3nnc4ccc([C@H](N5CCC(C)(O)C5)C(F)(F)F)cn34)nc12` (single isomer, unassigned; diastereomer 2) [Example 203, hydrochloride] were, in that order, 37 nM, 19.8 nM and more than 1000 nM.
The matching figures for `CC(C)Oc1cccc2ccc(-c3nnc4ccc([C@H](N5CCC(C)(O)C5)C(F)(F)F)cn34)nc12` (single isomer, unassigned; diastereomer 2) [Example 207]: 40 nM, 58 nM and more than 1000 nM.
Regarding `CCC1(N)CCN([C@@H](c2ccc3nnc(-c4ccc5cccc(OC)c5n4)n3c2)C(F)(F)F)C1` (single isomer, unassigned; diastereomer 2) [Example 244, dihydrochloride], the IC50 on recombinant rat PIM-3 was determined as 1 nM; against PIM-1, 1.11 nM; in assay [1] it was 93 nM.
The like results for `CCOc1cc2nc(-c3nnc4ccc([C@H](N5CCC(N)(CC)C5)C(F)(F)F)cn34)ccc2cc1F` (single isomer, unassigned; diastereomer 2) [Example 245, dihydrochloride] were, in that order, 0.5 nM, 1.04 nM and 125 nM.
Turning to `CCC1(N)CCN([C@H](c2ccc3nnc(-c4ccc5cccc(OC)c5n4)n3c2)C(F)(F)F)C1` (single isomer, unassigned; diastereomer 2) [Example 252, dihydrochloride], the results for the IC50 (on recombinant rat PIM-3; on PIM-1; in assay [1]) were 24 nM, 4.05 nM and more than 1000 nM, respectively.
As to `CCOc1cc2nc(-c3nnc4ccc([C@@H](N5CCC(N)(CC)C5)C(F)(F)F)cn34)ccc2cc1F` (single isomer, unassigned; diastereomer 2) [Example 253, dihydrochloride], the IC50 at recombinant rat PIM-3 was 2.2 nM; on PIM-1 it was 0.78 nM; in assay [1], 776 nM.
The matching figures for `N[C@H]1CCN([C@H](c2ccc3nnc(-c4ccc5ccc(O[C@@H]6CCC[C@H]6O)cc5n4)n3c2)C(F)(F)F)C1` (single isomer, unassigned; diastereomer 2) [Example 320, di-hydrochloride]: 0.3 nM, 0.14 nM and 111 nM.
The matching figures for `N[C@H]1CCN(C(c2ccc3nnc(-c4ccc5cc(F)c(OCCOC(=O)c6ccccc6)cc5n4)n3c2)C(F)(F)F)C1` (stereo in doubt) [Example 313, 2-((2-(6-((R)-1-((S)-3-aminopyrrolidin-1-yl)-2,2,2-trifluoroethyl)-[1,2,4]triazolo[4,3-a]pyridin-3-yl)-6-fluoroquinolin-7-yl)oxy)ethyl benzoate]: 6.1 nM, 1.15 nM and 5700 nM.
